Laboratory results from PubChem BioAssay (NCI).
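These data come from cells grown in 96-well plates and exposed to compound for 48 hours at five concentrations. GI50 is the concentration that inhibits growth by half. TGI: concentration producing complete growth inhibition.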

How the values were obtained:
Assay in all cases: growth of human tumour cells (NCI), 48 h
[1] = test system: SN12C renal
[2] = test system: HOP-62 NSCLC
[3] = test system: NCI-H23 lung
[4] = test system: OVCAR-4 ovarian
[5] = test system: SF-268 CNS
[6] = test system: HT29 colon
[7] = test system: UACC-62 melanoma
[8] = test system: LOX IMVI melanoma

O=C1CC(O)CC(=O)C1=C(O)CCCCCCCCCCc1ccccc1 (centres undefined)
TGI [1]: > 100 µM | TGI [2]: > 100 µM | TGI [3]: > 100 µM | TGI [4]: > 100 µM | TGI [5]: > 100 µM | TGI [6]: > 100 µM | TGI [7]: > 100 µM | TGI [8]: > 100 µM

O=C(O)CCN(CCCCN(CCC(=O)O)CCC(=O)O)CCC(=O)O
TGI [1]: > 100 µM | TGI [2]: > 100 µM | TGI [3]: > 100 µM | TGI [4]: > 100 µM | TGI [5]: > 100 µM | TGI [6]: > 100 µM | TGI [7]: > 100 µM | TGI [8]: > 100 µM

CCc1ccccc1NC(=O)C1=C(C)NC(C)=C(C(=O)Nc2ccccc2CC)C1c1ccccc1Cl
TGI [1]: > 100 µM | TGI [2]: > 100 µM | TGI [3]: > 100 µM | TGI [4]: > 100 µM | TGI [5]: > 100 µM | TGI [6]: > 100 µM | TGI [8]: > 100 µM

O=C(NCCCCNc1cccccc1=O)OCc1ccccc1
TGI [1]: > 100 µM | TGI [2]: > 100 µM | TGI [3]: > 100 µM | TGI [4]: > 100 µM | TGI [5]: > 100 µM | TGI [6]: > 100 µM | TGI [7]: > 100 µM | TGI [8]: > 100 µM

COc1cc(Br)c(C=Nc2cccc3cc(OC)c(OC)cc23)cc1OC
TGI [1]: > 100 µM | TGI [2]: > 100 µM | TGI [3]: > 100 µM | TGI [4]: > 100 µM | TGI [5]: > 100 µM | TGI [6]: 98.4 µM | TGI [7]: > 100 µM | TGI [8]: > 100 µM

CS(=O)(=O)OC1CCC2(C#N)CCC1C2=O (centres undefined)
TGI [1]: > 100 µM | TGI [2]: > 100 µM | TGI [3]: > 100 µM | TGI [4]: > 100 µM | TGI [5]: > 100 µM | TGI [6]: > 100 µM | TGI [7]: > 100 µM | TGI [8]: > 100 µM

N.N.N.N.[Co+3].[N-]=[N+]=[N-].[N-]=[N+]=[N-].[N-]=[N+]=[N-]
GI50 [1]: > 100 µM | TGI [1]: > 100 µM | GI50 [2]: > 100 µM | TGI [2]: > 100 µM | GI50 [3]: > 100 µM | TGI [3]: > 100 µM | GI50 [4]: > 100 µM | TGI [4]: > 100 µM | GI50 [5]: 47.4 µM | TGI [5]: > 100 µM | GI50 [6]: > 100 µM | TGI [6]: > 100 µM | GI50 [7]: 85.2 µM | TGI [7]: > 100 µM | GI50 [8]: > 100 µM | TGI [8]: > 100 µM

NC(=O)C(=O)N/N=C1\C(=O)N(c2ccc(Cl)cc2Cl)C(=O)C1C(=O)Nc1ccc(Cl)cc1Cl (centres undefined)
TGI [1]: > 100 µM | TGI [2]: > 100 µM | TGI [3]: > 100 µM | TGI [5]: > 100 µM | TGI [6]: > 100 µM | TGI [7]: > 100 µM | TGI [8]: > 100 µM

CC1=C(c2ccccc2)C(c2ccccc2)=C(c2ccccc2)C2(c3ccccc3)C(=O)C(C)CN12 (centres undefined)
TGI [1]: > 100 µM | TGI [2]: > 100 µM | TGI [4]: 50.5 µM | TGI [5]: > 100 µM | TGI [6]: > 100 µM | TGI [7]: > 100 µM | TGI [8]: > 100 µM

CCN(CC)c1c(C(=O)/C=C/c2ccc(Cl)cc2)c(-c2ccccc2)nn(C)c1=O
TGI [1]: 4.59 µM | TGI [2]: 4.26 µM | TGI [3]: 3.1 µM | TGI [4]: 3.27 µM | TGI [5]: 3.4 µM | TGI [6]: 3.32 µM | TGI [7]: 3.31 µM | TGI [8]: 3.48 µM

CCCCCCCCCCCc1nnc(N)o1
TGI [1]: > 100 µM | TGI [2]: > 100 µM | TGI [3]: > 100 µM | TGI [4]: > 100 µM | TGI [5]: > 100 µM | TGI [6]: > 100 µM | TGI [7]: > 100 µM | TGI [8]: > 100 µM

CC(C)=CC1C[C@H](C2CC=C3C2(C)CCC2[C@@]3(C)C(=O)CC3[C@]2(C)C=CC(=O)[C@]3(C)CO)CO1 (some centres undefined)
TGI [1]: 63.2 µM | TGI [2]: 30.6 µM | TGI [3]: 19.1 µM | TGI [4]: 41.3 µM | TGI [5]: 23.1 µM | TGI [6]: 18.2 µM | TGI [7]: 31 µM | TGI [8]: 9.45 µM

O=C(O)CCCSC(=O)Nc1ccc(N=Nc2ccccc2)cc1
TGI [1]: > 100 µM | TGI [2]: > 100 µM | TGI [3]: > 100 µM | TGI [4]: > 100 µM | TGI [5]: > 100 µM | TGI [6]: > 100 µM | TGI [7]: > 100 µM | TGI [8]: > 100 µM

O=C(O)C1=C(O)C(C(=O)O)C23CCCCCCCCCCC12C(C(=O)O)C(O)=C3C(=O)O (centres undefined)
TGI [1]: > 100 µM | TGI [3]: > 100 µM | TGI [5]: > 100 µM | TGI [6]: > 100 µM

Cc1nnn[n-]1.N.N.N.N.N.[Cl-].[Co+3]
GI50 [1]: > 100 µM | TGI [1]: > 100 µM | GI50 [2]: > 100 µM | TGI [2]: > 100 µM | GI50 [3]: > 100 µM | TGI [3]: > 100 µM | GI50 [5]: > 100 µM | TGI [5]: > 100 µM | GI50 [6]: > 100 µM | TGI [6]: > 100 µM | GI50 [7]: > 100 µM | TGI [7]: > 100 µM | GI50 [8]: > 100 µM | TGI [8]: > 100 µM

CC1(C)O[C@H]2[C@H](O)C[C@](O)(CO)C[C@H]2O1
TGI [1]: > 100 µM | TGI [3]: > 100 µM | TGI [4]: > 100 µM | TGI [6]: > 100 µM | TGI [7]: > 100 µM

O=[N+]([O-])c1ccc(C[P+](c2ccccc2)(c2ccccc2)c2ccccc2)cc1
TGI [1]: > 100 µM | TGI [2]: > 100 µM | TGI [3]: > 100 µM | TGI [6]: > 100 µM | TGI [7]: 95.6 µM | TGI [8]: > 100 µM

O/N=C1/C(=C/c2ccc3c(c2)OCO3)CCCC1C(NO)c1ccc2c(c1)OCO2 (centres undefined)
TGI [1]: 40.9 µM | TGI [2]: 53.7 µM | TGI [3]: 72.5 µM | TGI [4]: 75.1 µM | TGI [5]: > 100 µM | TGI [6]: 30.4 µM | TGI [7]: 39.8 µM

CC1=C(C(=O)Nc2cc(=O)n(C)c(=O)n2C)C(c2ccco2)C(C(=O)Nc2cc(=O)n(C)c(=O)n2C)=C(C)N1
TGI [1]: > 100 µM | TGI [2]: > 100 µM | TGI [3]: > 100 µM | TGI [4]: > 100 µM | TGI [5]: > 100 µM | TGI [6]: > 100 µM | TGI [8]: > 100 µM

Cc1c2ccncc2c(C)c2c1[nH]c1ccc(OC(C)C)cc12
TGI [1]: 2.45 µM | TGI [2]: 2.66 µM | TGI [3]: 2.93 µM | TGI [4]: 3.14 µM | TGI [5]: 3.07 µM | TGI [6]: 2.64 µM | TGI [8]: 2.51 µM
